From patent US20150157584A1, “INHIBITORS OF HIPPO-YAP SIGNALING PATHWAY” (The Regents of the University of California, priority 2012, published 2015)
Where two headings read alike, the source gives them in different places. Residues, ends and D or L forms follow the SMILES beside them. *: point of attachment. Cbz = O=C(OCc1ccccc1)*

What was measured:
[1] = test system: YAP/TAZ; assay: immunoblotting / phos-tag gels of YAP/TAZ phosphorylation in cultured cell lines; type: cell-based, human; conditions: for YAP phosphorylation by PDE inhibitors: ibudilast 100 μM, IBMX 100 μM, rolipram 50 μM, theophylline 1 mM, 1 hr; for YAP dephosphorylation, different doses: different doses of LPA, S1P, LPC or PA for 1 h; for YAP/TAZ activation by growth factors: EGF 50 ng/ml, PDGF 50 ng/ml, insulin 200 nM, FGF 10 ng/ml; for YAP/TAZ phosphorylation by BSA preparations: serum-starved HEK293A, 1 or 10 mg/ml BSA
Procedure: Immunoblotting was performed using standard protocol. […] The phos-tag reagents were purchased from Wako Chemicals, and gels containing phos-tag were prepared according to manufacture's instructions. YAP proteins can be separated into multiple bands in the presence of phos-tag depending on differential phosphorylation levels, with phosphorylated proteins run migrate slower.
(§1) Immunoblotting was performed using standard protocol. Antibodies for pYAP (S127), YAP, TAZ (V386), pCREB, CREB, pMLC2 (S19), pMLC2 (T18/S19), MST1, MST2, and Lats1 were from Cell Signaling Technology. Lats2 antibody was from Bethyl laboratories. HA-HRP, GFP, and MLC2 antibodies were from Santa Cruz biotechnology. Tubulin, HSP90 and Flag-HRP were purchased from Sigma Aldrich. PKA antibody was obtained from BD biosciences. GAPDH antibody was a gift from Dr. Yan Luo. Yki antibody was a gift from Dr. Kenneth Irvine. The phos-tag reagents were purchased from Wako Chemicals, and gels containing phos-tag and MnC12 were prepared according to manufacturer's instructions. YAP proteins can be separated into multiple bands on phos-tag gels, with the phosphorylated form of YAP proteins migrating at a slower speed.

[2] = test system: 3T3-L1 cells; assay: adipogenesis of 3T3-L1 cells (oil red staining); type: cell-based, mouse; conditions: 3T3-L1 with insulin, dexamethasone, troglitazone; IBMX 250 μM; KT5720 5 μM
Procedure: Adipogenesis. Murine 3T3-L1 cells were maintained in DMEM medium containing 10% calf serum (Hyclone). To initiate adipocyte differentiation, confluent 3T3-L1 cells switched into FBS containing DMEM medium; in addition, insulin, dexamethasone, troglitazone (Tro) were added; in selected samples, IBMX (250 μM) or forskolin (100 μM) were used to increase cAMP and PKA activity. For experiments using KT5720, 3T3-L1 cells were pre-treated with KT5720 (5 μM) overnight in advance and fresh KT5720 was added when adipogenesis was initiated. Two days later, medium was changed into DMEM containing 10% FBS and insulin. And after another two days, cells were incubated in DMEM with FBS. Cells were typically harvested on day 6 depending on the formation and maturation of lipid droplets. Cells were then subjected to RNA extraction or oil red (Sigma Aldrich) staining according to manufacturer's instructions.

[3] = test system: YAP/TAZ; assay: immunoblotting of YAP/TAZ phosphorylation in mouse cells (primary hepatocytes, 3T3-L1); type: cell-based
Procedure: (§2) Immunoblotting was performed using standard protocol. Antibodies for pYAP (S127), pYAP(S381/384), pMST1/2, TAZ, pERK, ERK1/2, Lats1, MST1, pAKT (S473), pS6K, S6K were from Cell Signaling, antibodies for YAP (H-125), CTGF, Cyr61, Gq/11, G13 and 14-3-3θ were from Santa Cruz, TEAD1 antibody was from BD biosciences, pTAZ (S89) antibody was in-house raised, GAPDH antibody was a gift from Dr. Yan Luo. The phos-tag reagents were purchased from Wako Chemicals, and gels containing phos-tag were prepared according to manufacture's instructions. YAP proteins can be separated into multiple bands in the presence of phos-tag depending on differential phosphorylation levels, with phosphorylated proteins run migrate slower.
as §1

[4] = test system: Lats1; assay: Lats1 immunoprecipitation kinase assay with GST-YAP substrate; type: cell-based, human; conditions: HEK293A; Ki16425 10 μM 30 min; C3 2 μg/ml 4 h
Procedure: Lats1 or HA-Lats2 kinase assays were performed similarly but using GST-YAP as substrates in the absence of [γ-^32P] ATP. The phosphorylation of GST-YAP at S127 was determined by immunoblotting using pYAP antibody.
Cells were lysed using mild lysis buffer (50 mM HEPES at pH 7.5, 150 mM NaCl, 1 mM EDTA, 1% NP-40, 10 mM pyrophosphate, 10 mM glycerophosphate, 50 mM NaF, 1.5 mM Na3VO4, protease inhibitor cocktail [Roche], 1 mM PMSF). Cell lysates were cleared and used for immunoprecipitation. Lats1 antibody (Cell Signaling Technology) was mixed with cell lysates for 1 hr at 4° C., and then protein A agarose beads were added in for 1 hr. After four washes with lysis buffer, beads were washed once with wash buffer (40 mM HEPES, 200 mM NaCl) and once with kinase assay buffer (30 mM HEPES, 50 mM potassium acetate, 5 mM MgCl2). The immunoprecipitated Lats1 was then subjected to a kinase assay in the presence of 500 μM cold ATP, 10 μCi [γ-32P] ATP, and 1 μg of GST-YAP expressed and purified from Escherichia coli as substrate. The reaction mixtures were incubated for 30 min at 30° C., terminated with SDS sample buffer, and subjected to SDS-PAGE and immunoblotting.

[5] = test system: YAP; type: cell-based, human
[6] = test system: CTGF; assay: expression of YAP/TAZ target gene CTGF; type: cell-based, human; conditions: HEK293A
Procedure: as §2
Following various treatments, cells were washed with cold phosphate-buffered saline and subjected to RNA extraction using an RNeasy Plus mini kit (Qiagen). […] Complementary DNA was then diluted and used for quantification (with β-actin gene as a control) by real-time PCR, which was performed using KAPA SYBR FAST qPCR master mix (Kapa Biosystems) and the 7300 real-time PCR system (Applied Biosystems). […]
RNA extraction, reverse transcription and real-time PCR. […] After dilution, cDNA levels were quantified by real-time PCR using KAPA SYBR FAST qPCR master mix (Kapa Biosystems) and the 7300 real-time PCR system (Applied Biosystems). […]

[7] = 3T3-L1, 10 μM forskolin, 100 μM IBMX or 5 μM KT5720, 1 hr
[8] = HEK293A pre-treated 30 min (1 μM Torin1, 10 μM U0126, 10 μM SB253580, 10 nM wortmannin), then 10% FBS 1 h

Oc1cc2c(cc1O)[C@H]1c3ccccc3CN[C@@H]1CC2 (racemic) [Dihydrexidine]
YAP phosphorylation ([1]; U2OS cells, 10 μM, 1 h): strong increase

CO[C@@H]1[C@@H]2OP(=O)(O)OC[C@H]2O[C@H]1n1c(Sc2ccc(Cl)cc2)nc2c(N)ncnc21 [8-CPT-2′-O-Me-cAMP]
YAP phosphorylation by PKA or Epac selective activators ([1]; HEK293A, 1 h): less dramatic

CC(C)Cn1c(=O)n(C)c(=O)c2[nH]cnc21 [IBMX]
adipogenesis [2]: induced | YAP phosphorylation by PDE inhibitors ([1]; MDA-MB-231): induced YAP phosphorylation | TAZ protein level [3, 7]: decreased | YAP phosphorylation [3, 7]: induced

CCCCCCOC(=O)[C@]1(O)C[C@@H]2O[C@@]1(C)n1c3ccccc3c3c4c(c5c6ccccc6n2c5c31)C(=O)NC4 [KT5720]
adipogenesis [2]: inhibited | YAP phosphorylation ([1]; MDA-MB-231, KT5720 5 μM): decreased | effect on forskolin- and epinephrine-induced YAP phosphorylation ([1]; MDA-MB-231, KT5720 5 μM 30 min, then 10 μM epinephrine or forskolin 1 hr): largely blocked | TAZ protein level [3, 7]: increased | YAP phosphorylation [3, 7]: repressed | effect on glucagon-induced YAP phosphorylation ([3]; primary hepatocytes isolated from mice, KT5720): abolished

Cc1noc(-c2ccc(CSCCC(=O)O)cc2)c1NC(=O)OC(C)c1ccccc1Cl (stereo not drawn) [Ki16425]
effect on Lats1 inhibition by LPA, S1P, and serum [4]: effectively blocked | effect on LPA-induced dephosphorylation of YAP/TAZ ([1]; HEK293A, Ki16425 10 μM, 30 min): blocked | effect on S1P-induced dephosphorylation of YAP/TAZ ([1]; HEK293A, Ki16425 10 μM, 30 min): not | effect on the ability of serum to repress YAP/TAZ phosphorylation ([1]; HEK293A, Ki16425 10 μM, particularly at 0.2% serum): partially inhibited

CC(C)C[C@@H](C=O)NC(=O)[C@H](CC(C)C)NC(=O)[C@H](CC(C)C)NC(=O)OCc1ccccc1 [MG132] (Cbz-Leu-Leu-Leu-aldehyde)
YAP protein levels under various doses of C108 with proteasome inhibitor [5]: mostly maintained

CCCCCCCCCCCCC/C=C/[C@@H](O)[C@@H](N)COP(=O)(O)O [S1P, sphingosine 1-phosphate]
YAP/TAZ dephosphorylation, time course ([1]; HEK293A, 1 μM for indicated times): potently induced YAP/TAZ dephosphorylation | YAP dephosphorylation, different doses ([1]; HEK293A): potently induced | expression of CTGF [6]: induced

C[S+]([O-])c1ccc(-c2nc(-c3ccc(F)cc3)c(-c3ccncc3)[nH]2)cc1 (stereo not drawn) [SB253580]
effect on the ability of FBS to dephosphorylate YAP/TAZ [1, 8]: no effect

N#CC(=C(/N)Sc1ccccc1N)/C(C#N)=C(\N)Sc1ccccc1N [U0126]
effect on the ability of FBS to dephosphorylate YAP/TAZ [1]: no effect

O=C(Nc1ncnc2c1ncn2[C@@H]1O[C@@H]2COP(=O)(O)O[C@H]2[C@H]1O)c1ccccc1 [b-Bnz-cAMP]
YAP phosphorylation by PKA or Epac selective activators ([1]; HEK293A, 1 h): dramatically increased

C/C1=C/C(=O)O[C@@H]2C[C@@H](CC[C@H](C)/C=C\CC1)O[C@@](O)([C@@H]1CSC(=O)N1)C2 [latrunculin B]
effect on the effects of LPA or S1P on YAP ([1]; HEK293A 1 μg/ml LatB 30 min, MCF10A localization): blocked

COc1ccc(C2CNC(=O)C2)cc1OC1CCCC1 (stereo not drawn) [rolipram]
YAP phosphorylation by PDE inhibitors ([1]; MDA-MB-231): induced YAP phosphorylation

Cn1c(=O)c2[nH]cnc2n(C)c1=O [theophylline]
YAP phosphorylation by PDE inhibitors ([1]; MDA-MB-231): induced YAP phosphorylation

CCC(=O)N1CCN(c2ccc(-n3c(=O)ccc4cnc5ccc(-c6cnc7ccccc7c6)cc5c43)cc2C(F)(F)F)CC1 [torin]
effect on the ability of FBS to dephosphorylate YAP/TAZ [1, 8]: no effect

COC[C@H]1OC(=O)c2coc3c2[C@@]1(C)C1=C(C3=O)[C@@H]2CCC(=O)[C@@]2(C)C[C@H]1OC(C)=O [wortmannin]
effect on the ability of FBS to dephosphorylate YAP/TAZ [1, 8]: no effect

EGF: growth factor tested
YAP/TAZ activation by growth factors ([1]; HEK293A): not involved

Fraction V BSA: BSA prepared by ethanol precipitation
YAP/TAZ phosphorylation by BSA preparations ([1]; 1 h): no activity

PDGF
YAP/TAZ activation by growth factors ([1]; HEK293A): not involved

fatty acid-free BSA: fatty acid-free BSA preparation
YAP/TAZ phosphorylation by BSA preparations ([1]; 1 h): no activity

glucagon: ligand known to activate PKA
YAP phosphorylation ([3]; primary hepatocytes isolated from mice, glucagon): increased | YAP phosphorylation ([3]; primary mouse hepatocytes, 2 μM glucagon, 1 h): increased

insulin: growth factor tested
YAP/TAZ activation by growth factors ([1]; HEK293A): not involved

phosphatidic acid [PA]
dephosphorylation of YAP/TAZ by phospholipids ([1]; HEK293A, 100 μM lipid): strongly induced dephosphorylation | concentration needed to induce YAP dephosphorylation ([1]; HEK293A, 1 h): 100 µM | YAP dephosphorylation, different doses ([1]; HEK293A): much higher concentrations | potency relative to LPA (times less potent) ([1]; YAP dephosphorylation, HEK293A): 1,000 times
